Source: patent US8415469B2, “Compounds and methods for kinase modulation, and indications therefor” (Plexxikon Inc., priority 2005, dated 2013)
Values belong to the compound of their own block, whether it stands above or below them.

Key:
[1] = tested on: AML blasts harboring FLT3/ITD mutations; settings: primary AML blasts harboring FLT3/ITD mutations; cited from earlier work
[2] = tested on: primary cultures of human and murine microglia; settings: stimulated with endotoxins or Abeta 1-40; cited from earlier work
[3] = tested on: brain TNF production; settings: mice, intracerebroventricular lipopolysaccharide; cited from earlier work
[4] = target: T1, B-Raf (Homo sapiens, UniProt P15056); assay: AlphaScreen kinase assay, B-Raf; assay type: biochemical; settings: read-out: IC50, activity toward kinase B-Raf
T1 construct: purchased Upstate Biotechnology
T1 sequence (P15056 whole entry): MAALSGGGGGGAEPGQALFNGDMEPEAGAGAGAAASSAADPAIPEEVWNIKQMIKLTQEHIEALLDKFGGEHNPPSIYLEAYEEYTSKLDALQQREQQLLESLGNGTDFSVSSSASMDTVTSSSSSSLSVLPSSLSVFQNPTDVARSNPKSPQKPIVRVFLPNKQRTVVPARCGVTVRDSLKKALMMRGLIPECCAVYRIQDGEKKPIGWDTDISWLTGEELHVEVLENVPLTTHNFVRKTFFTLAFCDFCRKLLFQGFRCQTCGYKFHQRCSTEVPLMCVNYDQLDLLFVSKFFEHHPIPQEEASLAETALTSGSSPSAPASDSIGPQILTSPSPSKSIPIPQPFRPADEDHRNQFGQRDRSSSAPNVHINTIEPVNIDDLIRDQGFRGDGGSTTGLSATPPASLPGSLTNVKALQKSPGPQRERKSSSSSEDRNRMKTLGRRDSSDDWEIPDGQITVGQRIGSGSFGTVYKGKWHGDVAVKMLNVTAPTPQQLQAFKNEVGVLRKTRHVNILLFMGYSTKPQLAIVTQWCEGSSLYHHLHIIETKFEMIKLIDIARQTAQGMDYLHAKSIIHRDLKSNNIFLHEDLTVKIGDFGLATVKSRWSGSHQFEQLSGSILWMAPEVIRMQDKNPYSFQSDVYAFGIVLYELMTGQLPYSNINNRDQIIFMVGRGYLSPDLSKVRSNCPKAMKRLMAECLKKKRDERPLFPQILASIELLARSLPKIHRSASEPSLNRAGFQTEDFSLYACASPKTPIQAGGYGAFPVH

[5] = target: T2, B-Raf V600E (Homo sapiens, UniProt P15056, V600E); assay: AlphaScreen kinase assay, B-Raf V600E; assay type: biochemical; settings: read-out: IC50, activity toward kinase B-Raf V600E
T2 construct: P4254. pFastBacBD-CDC37 BRAF D437-K722-X, V600E; His6 with pFastBac HT leader (TEV site) (N); made in house; host or cells: Sf9 (baculovirus; chaperone CDC37 co-expressed)
T2 sequence (P15056 with tags, fused parts or gaps V600E): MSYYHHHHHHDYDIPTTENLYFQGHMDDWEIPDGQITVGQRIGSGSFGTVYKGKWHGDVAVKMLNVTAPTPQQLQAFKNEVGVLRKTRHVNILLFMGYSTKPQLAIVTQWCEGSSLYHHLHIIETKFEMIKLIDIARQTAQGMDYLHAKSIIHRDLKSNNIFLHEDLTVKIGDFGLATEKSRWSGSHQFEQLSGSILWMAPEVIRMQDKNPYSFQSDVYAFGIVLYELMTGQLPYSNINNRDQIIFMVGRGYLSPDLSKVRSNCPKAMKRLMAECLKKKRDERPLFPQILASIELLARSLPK

[6] = target: T3, c-Raf-1 (Homo sapiens, UniProt P04049); assay: AlphaScreen kinase assay, c-Raf-1; assay type: biochemical; settings: read-out: IC50, activity toward kinase c-Raf-1
T3 construct: purchased Upstate Biotechnology
T3 sequence (P04049 whole entry): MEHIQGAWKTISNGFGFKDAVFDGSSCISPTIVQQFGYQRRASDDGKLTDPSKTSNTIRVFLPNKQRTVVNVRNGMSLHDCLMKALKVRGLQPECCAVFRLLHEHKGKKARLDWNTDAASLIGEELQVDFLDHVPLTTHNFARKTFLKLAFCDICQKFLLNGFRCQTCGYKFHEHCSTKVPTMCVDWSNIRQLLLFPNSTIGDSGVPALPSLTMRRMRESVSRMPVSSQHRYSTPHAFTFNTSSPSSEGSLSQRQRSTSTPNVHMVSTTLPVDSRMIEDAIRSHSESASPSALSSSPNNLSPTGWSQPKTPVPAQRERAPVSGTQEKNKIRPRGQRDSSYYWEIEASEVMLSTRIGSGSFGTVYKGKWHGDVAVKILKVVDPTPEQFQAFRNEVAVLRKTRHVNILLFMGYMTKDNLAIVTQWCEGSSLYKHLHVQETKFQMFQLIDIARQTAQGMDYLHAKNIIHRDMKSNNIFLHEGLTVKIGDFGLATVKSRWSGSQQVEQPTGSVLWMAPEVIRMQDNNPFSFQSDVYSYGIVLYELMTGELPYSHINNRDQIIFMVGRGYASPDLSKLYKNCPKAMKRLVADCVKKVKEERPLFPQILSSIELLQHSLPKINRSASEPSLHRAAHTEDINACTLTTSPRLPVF

[7] = target: T4, Flt3 (Homo sapiens, UniProt P36888); assay: Z'-Lyte FRET kinase assay (Invitrogen), Flt3; assay type: biochemical; settings: read-out: IC50, activity toward kinase Flt3
T4 construct: purchased Invitrogen (assay run by Invitrogen)
T4 sequence (P36888 27-993): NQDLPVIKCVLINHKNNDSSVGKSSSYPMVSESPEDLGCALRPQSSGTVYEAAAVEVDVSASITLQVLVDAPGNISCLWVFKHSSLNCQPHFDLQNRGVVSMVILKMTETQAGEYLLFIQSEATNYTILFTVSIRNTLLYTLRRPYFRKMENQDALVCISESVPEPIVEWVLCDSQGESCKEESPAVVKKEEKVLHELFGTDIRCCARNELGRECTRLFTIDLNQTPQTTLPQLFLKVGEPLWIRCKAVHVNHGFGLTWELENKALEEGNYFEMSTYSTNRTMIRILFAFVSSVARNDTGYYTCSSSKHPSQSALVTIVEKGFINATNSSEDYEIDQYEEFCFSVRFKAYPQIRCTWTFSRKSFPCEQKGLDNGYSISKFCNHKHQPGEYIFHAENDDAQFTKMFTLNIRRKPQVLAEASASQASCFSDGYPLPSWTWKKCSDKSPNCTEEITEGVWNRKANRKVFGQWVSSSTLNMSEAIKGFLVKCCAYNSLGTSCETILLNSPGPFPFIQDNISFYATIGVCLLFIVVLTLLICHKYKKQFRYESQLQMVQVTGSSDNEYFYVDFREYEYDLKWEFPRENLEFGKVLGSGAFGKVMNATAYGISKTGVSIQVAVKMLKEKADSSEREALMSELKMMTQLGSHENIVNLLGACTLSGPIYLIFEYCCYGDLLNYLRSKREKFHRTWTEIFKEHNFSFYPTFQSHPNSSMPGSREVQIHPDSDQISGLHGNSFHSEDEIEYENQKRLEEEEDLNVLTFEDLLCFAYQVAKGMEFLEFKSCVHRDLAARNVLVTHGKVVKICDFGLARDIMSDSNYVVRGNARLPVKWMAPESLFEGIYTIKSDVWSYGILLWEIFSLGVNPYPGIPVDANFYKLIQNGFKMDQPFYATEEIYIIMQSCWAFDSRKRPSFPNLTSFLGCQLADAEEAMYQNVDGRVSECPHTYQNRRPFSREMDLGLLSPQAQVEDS
From the text: The effect of potential modulators of kinase activity can be measured in a variety of different assays known in the art. For example, direct radiometric, indirect FRET or AlphaScreen assays may be used to assess the level of phosphorylation of a substrate in the presence of test compounds in order to determine the inhibitory affect of the compound on the kinase. Invitrogen (Carlsbad, Calif.) uses a FRET based assay for Btk, EGFR, EphB2, Flt3, lrak4, Kdr, MAP2K1, MAPKAPK2, PDGFRB, PKC theta, Stk6 and Yes. For these assays, compounds of the invention were screened by Invitrogen using Z′-Lyte™ kinase assay.
Briefly, the Invitrogen kinase assay involves use of a specific peptide substrate optimized for each kinase, containing a fluorophore at each end that make up the FRET pair. The peptide sensitivity to proteolytic cleavage depends on phosphorylation of the peptide. Non-phosphorylated peptide is cleaved by a protease while peptide phosphorylated by the kinase is not cleaved. Cleavage of the peptide disrupts the FRET between the donor (coumarin) and acceptor (fluorescein) fluorophores, resulting in an increase in the ratio of donor emission to acceptor emission. The emission ratio of coumarin to fluorescein is used to assess the reaction progress. The extent of phosphorylation is determined from the emission ratio, which is low when the kinase is active (phosphorylated peptide is not cleaved, FRET pair connected) or higher for inhibited kinase (non-phosphorylated peptide is cleaved, FRET pair separated). Thus, the assay involves a kinase reaction in the presence of varying concentrations of a given compound, a development reaction with site specific protease, and detection of the fluorescent emission ratio of coumarin and fluorscein. […] Reaction conditions for each kinase are determined to provide optimal reaction times, incubation temperature, kinase and ATP concentrations. Test samples are made up in 1× kinase buffer (50 mM HEPES pH 7.5, 50 mM MgCl2, 5 mM EGTA, 0.05% BRIJ-35) and compound at desired concentration prepared in DMSO such that the final DMSO is 1%. […] Typically, assay plates are prepared to 10 μl final volume per sample, adding 2.5 μl of compound at 4× the desired concentration in 4% DMSO (serial dilution of compound provides concentration curve), 5 μl of the desired kinase mixed with Z′-LYTE™ peptide substrate (2× in 2× kinase buffer, final peptide at 2 μM), and 2.5 μl of 4×ATP solution. All kinase except for MAP2K1 were at 10 μM ATP in the kinase reaction, while MAP2K1 was at 100 μM. Samples are mixed and the kinase reaction is incubated 1 hour at room temperature, after which 5 μl of development solution is added and mixed. After incubation for another 1 hour at room temperature, 5 μl of stop reagent is added to each sample and mixed. The fluorescence signals are measured to determine the emission ratio.

[8] = target: T5, Kdr (Homo sapiens, UniProt P35968); assay: Z'-Lyte FRET kinase assay (Invitrogen), Kdr; assay type: biochemical; settings: read-out: IC50, activity toward kinase Kdr
T5 construct: purchased Invitrogen (assay run by Invitrogen)

[9] = target: ALK (Homo sapiens, UniProt Q9UM73); assay: AlphaScreen kinase assay, ALK; assay type: biochemical; settings: read-out: IC50, activity toward kinase ALK
ALK, sequence (Q9UM73 19-1620): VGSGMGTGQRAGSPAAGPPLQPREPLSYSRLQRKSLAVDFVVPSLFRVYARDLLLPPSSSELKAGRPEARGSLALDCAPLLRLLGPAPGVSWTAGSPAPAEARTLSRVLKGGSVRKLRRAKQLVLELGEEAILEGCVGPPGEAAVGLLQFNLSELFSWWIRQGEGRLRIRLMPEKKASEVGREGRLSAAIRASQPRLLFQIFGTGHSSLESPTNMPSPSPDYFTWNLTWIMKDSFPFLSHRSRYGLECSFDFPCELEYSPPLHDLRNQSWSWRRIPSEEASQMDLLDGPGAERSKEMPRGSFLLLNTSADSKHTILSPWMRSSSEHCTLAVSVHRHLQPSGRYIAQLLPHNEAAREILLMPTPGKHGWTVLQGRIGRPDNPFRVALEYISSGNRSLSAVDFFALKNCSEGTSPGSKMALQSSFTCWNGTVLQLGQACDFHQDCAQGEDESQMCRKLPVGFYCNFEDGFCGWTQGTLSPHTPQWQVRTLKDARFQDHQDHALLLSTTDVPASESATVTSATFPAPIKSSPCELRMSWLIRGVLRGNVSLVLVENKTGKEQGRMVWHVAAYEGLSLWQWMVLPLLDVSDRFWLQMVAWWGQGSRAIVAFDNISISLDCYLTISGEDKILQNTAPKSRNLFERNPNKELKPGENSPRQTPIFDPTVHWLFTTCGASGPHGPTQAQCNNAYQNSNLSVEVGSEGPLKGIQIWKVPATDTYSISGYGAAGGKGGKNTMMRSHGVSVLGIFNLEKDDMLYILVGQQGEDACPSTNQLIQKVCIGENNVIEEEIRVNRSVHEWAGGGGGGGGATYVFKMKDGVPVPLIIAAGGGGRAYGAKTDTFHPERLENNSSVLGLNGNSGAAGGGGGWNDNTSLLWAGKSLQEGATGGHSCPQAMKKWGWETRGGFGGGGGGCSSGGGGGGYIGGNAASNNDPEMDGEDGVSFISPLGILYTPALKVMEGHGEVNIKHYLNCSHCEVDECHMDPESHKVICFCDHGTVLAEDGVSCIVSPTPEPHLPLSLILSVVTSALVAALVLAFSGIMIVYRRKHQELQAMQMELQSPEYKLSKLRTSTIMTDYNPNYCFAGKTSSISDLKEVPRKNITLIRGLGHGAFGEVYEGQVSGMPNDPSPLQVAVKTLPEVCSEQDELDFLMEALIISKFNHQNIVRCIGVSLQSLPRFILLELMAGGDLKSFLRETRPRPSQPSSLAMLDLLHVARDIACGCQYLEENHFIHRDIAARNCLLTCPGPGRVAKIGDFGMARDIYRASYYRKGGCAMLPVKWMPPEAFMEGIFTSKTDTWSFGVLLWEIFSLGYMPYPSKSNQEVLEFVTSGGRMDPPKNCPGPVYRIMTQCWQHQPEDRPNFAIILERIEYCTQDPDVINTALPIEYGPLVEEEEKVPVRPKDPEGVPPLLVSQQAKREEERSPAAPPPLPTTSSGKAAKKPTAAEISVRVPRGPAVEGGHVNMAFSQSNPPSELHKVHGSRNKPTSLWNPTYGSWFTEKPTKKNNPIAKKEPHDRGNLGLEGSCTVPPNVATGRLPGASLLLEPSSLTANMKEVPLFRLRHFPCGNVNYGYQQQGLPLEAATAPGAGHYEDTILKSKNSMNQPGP
From the text: (§1) AlphaScreen assay was used to screen additional kinases. The assay is similarly dependent on the phosphorylation of a peptide substrate. In this assay, an antibody that recognizes phosphorylated substrate is bound to an acceptor bead. The peptide substrate is attached to biotin, which binds to a donor head that contains streptavidin. Thus phosphorylated substrate is bound by antibody and streptavidin, bringing the donor and acceptor heads into close proximity when kinase is not inhibited. The donor produces singlet oxygen which results in emission from the acceptor when they are in close proximity. Conversely, when kinase is inhibited, the donor and acceptor beads are not associated and the emission from the acceptor is reduced.
(§2) AlphaScreen assays were done using compounds dissolved in DMSO to a concentration of 20 mM. The compounds were diluted accordingly to the desired final concentrations in each sample well, using 1:3 serial dilution for a total of 8 concentration points.

[10] = target: Frk (Homo sapiens, UniProt P42685); assay: AlphaScreen kinase assay, Frk; assay type: biochemical; settings: read-out: IC50, activity toward kinase Frk
Frk, sequence (P42685 whole entry): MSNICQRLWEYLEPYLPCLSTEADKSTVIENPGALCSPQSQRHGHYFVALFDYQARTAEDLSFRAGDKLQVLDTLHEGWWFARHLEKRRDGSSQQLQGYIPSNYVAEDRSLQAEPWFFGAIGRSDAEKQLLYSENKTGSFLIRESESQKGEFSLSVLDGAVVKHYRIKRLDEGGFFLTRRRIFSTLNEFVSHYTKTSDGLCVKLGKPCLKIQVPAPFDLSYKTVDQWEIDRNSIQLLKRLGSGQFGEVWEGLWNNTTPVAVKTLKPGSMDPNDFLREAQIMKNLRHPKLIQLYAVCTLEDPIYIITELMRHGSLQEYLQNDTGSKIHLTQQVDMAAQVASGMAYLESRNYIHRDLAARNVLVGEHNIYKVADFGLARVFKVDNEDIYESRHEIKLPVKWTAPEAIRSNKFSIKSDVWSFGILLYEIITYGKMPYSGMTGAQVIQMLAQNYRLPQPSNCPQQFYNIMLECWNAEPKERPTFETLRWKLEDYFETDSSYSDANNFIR
From the text: as §1, §2

[11] = target: TrkA (Homo sapiens, UniProt P04629); assay: AlphaScreen kinase assay, TrkA; assay type: biochemical; settings: read-out: IC50, activity toward kinase TrkA
TrkA, sequence (P04629 33-796): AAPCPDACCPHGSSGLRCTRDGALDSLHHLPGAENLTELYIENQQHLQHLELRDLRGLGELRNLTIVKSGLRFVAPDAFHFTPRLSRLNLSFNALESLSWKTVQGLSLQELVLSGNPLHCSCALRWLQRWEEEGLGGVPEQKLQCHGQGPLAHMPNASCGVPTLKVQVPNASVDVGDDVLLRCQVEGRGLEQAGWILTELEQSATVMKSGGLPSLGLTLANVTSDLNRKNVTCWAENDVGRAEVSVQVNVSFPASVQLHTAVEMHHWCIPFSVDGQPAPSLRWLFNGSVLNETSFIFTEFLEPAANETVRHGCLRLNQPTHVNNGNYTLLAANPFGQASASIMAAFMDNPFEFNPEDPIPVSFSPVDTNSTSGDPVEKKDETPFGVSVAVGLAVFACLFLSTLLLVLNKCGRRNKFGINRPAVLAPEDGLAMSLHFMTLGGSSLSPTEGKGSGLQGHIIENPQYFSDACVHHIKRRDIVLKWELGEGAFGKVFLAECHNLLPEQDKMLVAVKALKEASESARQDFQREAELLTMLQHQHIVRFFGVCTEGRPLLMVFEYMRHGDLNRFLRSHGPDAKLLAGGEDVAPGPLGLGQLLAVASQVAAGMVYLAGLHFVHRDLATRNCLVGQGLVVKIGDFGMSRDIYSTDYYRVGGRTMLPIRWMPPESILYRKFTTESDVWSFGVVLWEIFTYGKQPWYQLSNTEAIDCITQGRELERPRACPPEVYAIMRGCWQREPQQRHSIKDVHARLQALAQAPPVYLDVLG
From the text: as §1, §2

[12] = target: Brk (Homo sapiens, UniProt Q13882); assay: AlphaScreen kinase assay, Brk; assay type: biochemical; settings: read-out: IC50, activity toward kinase Brk
Brk, sequence (Q13882 whole entry): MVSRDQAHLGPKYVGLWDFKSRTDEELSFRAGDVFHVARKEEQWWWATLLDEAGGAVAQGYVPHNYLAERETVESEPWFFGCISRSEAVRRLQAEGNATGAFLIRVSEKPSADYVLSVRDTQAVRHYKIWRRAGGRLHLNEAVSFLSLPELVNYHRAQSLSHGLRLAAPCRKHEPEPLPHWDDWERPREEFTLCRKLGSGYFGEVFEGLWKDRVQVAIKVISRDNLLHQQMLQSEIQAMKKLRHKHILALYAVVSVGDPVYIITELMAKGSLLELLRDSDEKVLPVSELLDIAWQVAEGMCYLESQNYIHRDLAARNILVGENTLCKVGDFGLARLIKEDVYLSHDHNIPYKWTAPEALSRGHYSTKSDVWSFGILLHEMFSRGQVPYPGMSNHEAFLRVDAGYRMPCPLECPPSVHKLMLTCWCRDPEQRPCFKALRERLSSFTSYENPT
From the text: as §1, §2

[13] = tested on: human gastric cancer cell line MKN28; settings: cited from earlier work
[14] = tested on: U87MG glioma cells; settings: cited from earlier work

SMILES: Cc1cc2ncc(-c3ccccc3)nc2cc1C [AG1295]
cytotoxicity to AML blasts [1]: specifically cytotoxic

SMILES: CCSCc1ccc2c(c1)c1c3c(c4c5cc(CSCC)ccc5n5c4c1n2[C@H]1C[C@](O)(C(=O)OC)[C@]5(C)O1)CNC3=O [CEP-1347]
cytokine production (TNF-alpha, IL-6, MCP-1) [2]: reduced cytokine production
brain TNF production [3]: inhibited brain TNF production

IC50 [4]: ≤ 10 µM
IC50 [5]: ≤ 10 µM
IC50 [6]: ≤ 10 µM
IC50 [7]: ≤ 10 µM
IC50 [8]: ≤ 10 µM
IC50 [9]: ≤ 10 µM
IC50 [10]: ≤ 10 µM
IC50 [11]: ≤ 10 µM
IC50 [12]: ≤ 10 µM
SMILES: CCCS(=O)(=O)Nc1ccc(F)c(C(OC)c2c[nH]c3ncc(OC)cc23)c1F (stereo not shown) [Compound P-1244, Propane-1-sulfonic acid {2,4-difluoro-3-[methoxy-(5-methoxy-1H-pyrrolo[2,3-b]pyridin-3-yl)-methyl]-phenyl}-amide]

SMILES: CS(=O)(=O)Nc1ccc([N+](=O)[O-])cc1OC1CCCCC1 [NS-398]
proliferation and growth of MKN28 cells [13]: significantly inhibit proliferation and growth

SMILES: CN[C@@H]1C[C@H]2O[C@@](C)([C@@H]1OC)n1c3ccccc3c3c4c(c5c6ccccc6n2c5c31)C(=O)N[C@H]4O [UCN-01, 7-hydroxystaurosporine]
increase of the cytotoxicity of TMZ ([14]; combined with temozolomide): 5 fold
toxicity of the inhibitor alone ([14]; without TMZ): not in itself toxic

SMILES: COc1ccc2c(c1)c(CC(=O)O)c(C)n2C(=O)c1ccc(Cl)cc1 [indomethacin]
proliferation and growth of MKN28 cells [13]: significantly inhibit proliferation and growth
